From article PMC11375437, “Selective labelling of GBA2 in cells with fluorescent β-D-arabinofuranosyl cyclitol aziridines” (Chemical Science, 2024) come the findings set out here.

Where “and” joins values, the source holds several entries; their conditions need not be identical. Equal values may be shown once. Read-outs that look alike come from different tables or passages of the source. Where only a bound is given, the exact number is not on record here.

In this assay the target is T1, rhGBA1 (imiglucerase) (Homo sapiens, UniProt P04062, R534H).
T1 construct: purchased Sanofi Genzyme (gift) Cerezyme®
T1 sequence (P04062 40-536 R534H): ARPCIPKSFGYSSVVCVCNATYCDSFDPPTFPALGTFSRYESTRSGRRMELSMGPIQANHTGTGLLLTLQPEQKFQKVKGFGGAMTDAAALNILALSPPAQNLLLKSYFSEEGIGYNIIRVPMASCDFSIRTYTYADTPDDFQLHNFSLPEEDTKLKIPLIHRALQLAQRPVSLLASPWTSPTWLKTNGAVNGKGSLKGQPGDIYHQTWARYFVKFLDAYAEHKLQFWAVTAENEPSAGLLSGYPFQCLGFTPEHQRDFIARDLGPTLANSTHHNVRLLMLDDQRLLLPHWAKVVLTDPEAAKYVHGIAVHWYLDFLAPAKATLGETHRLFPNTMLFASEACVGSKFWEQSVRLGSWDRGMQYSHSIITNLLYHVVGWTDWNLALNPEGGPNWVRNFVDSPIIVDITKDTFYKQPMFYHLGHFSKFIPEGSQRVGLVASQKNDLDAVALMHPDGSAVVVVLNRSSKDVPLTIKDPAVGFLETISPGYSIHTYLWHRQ
Description: 4MU fluorogenic substrate assay for apparent IC50, rhGBA1. Format: biochemical. To be noted: 30 min pre-incubation, 4MU-β-D-Glc. An excerpt:
To identify an ABP that selectively labels human GBA2 over GBA1 and GBA3, a library of cyclophellitol-based ABPs with varying configurations (ESI Fig. S1 ^†) was screened for their selectivity towards human retaining β-glucosidases. For this purpose, we initially assessed the inhibition properties of the compounds using recombinant human GBA1 (rhGBA1, imiglucerase), lysates of cells overexpressing GBA2 or GBA3 (both in combination with knockout of the other retaining β-glucosidases). In a preliminary screen, enzymes were pre-incubated for 30 min with the tested compounds, followed by the addition of the fluorogenic substrate, 4MU-β-D-Glc, and subsequent quantification of released fluorescent 4MU after 30 minutes. This screening brought our attention to a new set of β-D-Araf cyclitol aziridines as potential GBA2 inhibitors. […] On the other hand, the biotin-tagged β-D-Araf compound 6 is a poor inhibitor of all three glucosidases (apparent IC50 > 8 μM). Arabinofuranosyl cyclitol 12–20 with various configurations (α-L-Araf and β-L-Araf) were also evaluated (ESI Fig. S1 ^†).
Recombinant human GBA1 (rhGBA1, Imiglucerase) was kindly provided by Sanofi Genzyme (Cambridge, MA, USA). 4-Methylumbelliferyl-β-D-glucopyranoside substrates were purchase from Glycosynth (Warrington Cheshire, UK). Protein concentration was measured using the Pierce BCA assay kit (Thermo Fisher Scientific, Waltham, MA, USA). Harvested cells (cell pellets), cell lysates and tissue homogenates not used directly were stored at -80 °C. […]
2.5 4MU fluorogenic substrate assay for apparent IC50 determination
4MU fluorogenic substrate assays (using recombination human rhGBA1 or lysates of HEK293T cells) were conducted in 96-well plates at 37 °C. Samples were diluted with McIlvaine buffer (150 mM citric acid-Na2HPO4) to a final volume of 25 μL, at the appropriate pH for each enzyme. Assays were performed by incubating the samples with 100 μL 4-methylumbelliferyl-β-D-glucopyranoside substrate diluted in McIlvaine buffer for a period of 30 min. Enzyme activities and apparent IC50 values were determined by subtraction of the background (measured for incubations without enzyme) as previously described.4 The substrate mixtures used for each enzyme were as follows:
GBA1: 3.75 mM 4-MU-β-D-glucopyranoside in McIlvaine buffer (150 mM, pH 5.2, supplemented with 0.2% (w/v) sodium taurocholate, 0.1% (v/v) Triton X-100, 0.1% (w/v) bovine serum albumin (BSA)); GBA2: 3.75 mM 4 MU-β-D-glucopyranoside in McIlvaine buffer (150 mM, pH 5.8); GBA3: 3.75 mM 4-MU-β-D-glucopyranoside in McIlvaine buffer (150 mM, pH 6.0). To determine apparent IC50: For GBA1, 3.16 ng (53 fmol) of rhGBA1 (recombinant human GBA1, Imiglucerase) was prepared in 12.5 μL McIlvaine buffer (150 mM, pH 5.2, supplemented with 0.1% (v/v) Triton X-100, 0.2% (w/v) sodium taurocholate, and 0.1% (w/v) bovine serum albumin (BSA)). The enzyme was incubated with 12.5 μL […]
of inhibitors diluted in McIlvaine buffer (150 mM, pH 5.2) at 37 °C for 30 min or 3 h. For GBA2, lysates of GBA1/GBA2 KO HEK293T cells with GBA2 overexpression were prepared in 12.5 μL McIlvaine buffer (150 mM, pH 5.8), and incubated with 12.5 μL of inhibitors diluted in McIlvaine buffer (150 mM, pH 5.8) at 37 °C for 30 min or 3 h. For GBA3, lysates of GBA1/GBA2 KO HEK293T cells with GBA3 overexpression were prepared in 12.5 μL McIlvaine buffer (150 mM, pH 6.0), and incubated with 12.5 μL of inhibitors diluted in McIlvaine buffer (150 mM, pH 6.0) at 37 °C for 30 min or 3 h. Subsequently, the samples were incubated with 100 μL 4-methylumbelliferyl-β-D-glucopyranoside substrates dissolved in McIlvaine buffer described above for a period of 30 min. After stopping the enzyme reaction with 200 μL 1 M NaOH-glycine (pH 10.3), 4-methylumbelliferone fluorescence was measured with a fluorimeter LS55 (Perkin Elmer, Waltham, MA, USA) with λEX 366 nm and λEM 445 nm. The IC50 value was calculated using Graphpad Prism 9.0 with the Nonlinear regression (curve fit) - […]

Where [1] appears, read: imiglucerase (Cerezyme), pH 5.2, n = 3 for β-D-Araf, n = 1 for α-L-Araf and β-L-Araf, read-out: Apparent IC50 rhGBA1.

What is called IC50 is the concentration that gives 50% inhibition. Regarding `CC1=CC(C)=[N+]2C1=C(CCCCc1cn(CCCCCCCCN3[C@@H]4[C@H](CO)[C@@H](O)[C@H](O)[C@@H]43)nn1)c1c(C)cc(C)n1[B-]2(F)F` (some centres unmarked) [ABP 3], the IC50 under setting [1] came to 4290 ± 157 nM.

On to `COc1ccc(C2=[N+]3C(=C(CCCCc4cn(CCCCCCCCN5[C@@H]6[C@H](CO)[C@@H](O)[C@H](O)[C@@H]65)nn4)c4ccc(-c5ccc(OC)cc5)n4[B-]3(F)F)C=C2)cc1` (some centres unmarked) [ABP 4], for which, under setting [1], the IC50 stood at 1780 ± 71 nM. The same measure, in the same setting: for `CN1/C(=C/C=C/C=C/C2=[N+](CCCCCC(=O)NCc3cn(CCCCCCCCN4[C@@H]5[C@H](CO)[C@@H](O)[C@H](O)[C@@H]54)nn3)c3ccccc3C2(C)C)C(C)(C)c2ccccc21` (some centres unmarked) [ABP 5] the value was 250 to 300 nM and 295 nM. For `O=C(CCCC[C@@H]1SC[C@@H]2NC(=O)N[C@@H]21)NCc1cn(CCCCCCCCN2[C@@H]3[C@H](CO)[C@@H](O)[C@H](O)[C@@H]32)nn1` (some centres unmarked) [ABP 6], the IC50 reads like this: (read-out: Apparent IC50 GBA1) above 8000 nM; under setting [1], 10700 ± 786 nM. For `OC[C@@H]1[C@@H](O)[C@H](O)[C@@H]2N[C@H]12` [Compound 1, β-D-Arabinofuranosyl cyclitol aziridine] the same measures were above 50000 nM and above 50000 nM.

For the compound `[N-]=[N+]=NCCCCCCCCN1[C@@H]2[C@H](CO)[C@@H](O)[C@H](O)[C@@H]21` (stereo partly drawn) [Compound 2, β-D-arabinofuranosyl cyclitol aziridine-azidooctyl], under setting [1], the IC50 worked out at 2730 nM.
